Measurements: patent publication US20120100609A1, “N-LINKED GLYCAN BIOSYNTHESIS MODULATORS” (priority 2009, published 2012)

Tested on: N-linked glycans of CHO cells
Assay: N-glycan profiling of treated CHO cells by normal phase HPLC (PNGaseF release, 2AB label)
Assay type: cell-based, Chinese Hamster
Details: CHO cells treated with compound, doses in uM
Protocol: N-linked glycans were purified from CHO cell cultures and different N-linked glycan structural peaks were separated by normal phase HPLC. For the analyses, cultured CHO cells were treated with and without the test compounds as described above and then harvested for N-glycan profiling. The spent medium was decanted and the cells were rinsed 3 times with PBS and detached with 5 mM EDTA/PBS. N-glycans were released from cells using PNGaseF (Prozyme, Cat# GKE-5006) as described by the manufacture. Released glycans were labeled with […] (2AB) (Sigma, Cat# A89804) as described by the manufacture. Non-incorporated 2AB was removed using a Discovery DPA-6S column. Briefly, the column was pre-equilibrated 2× with 1 ml 97% ACN. Samples were loaded by adding 1 ml 97% acetonitrile (ACN) to the reaction mix. The column was washed 4× with 1 ml 97% CAN. 2AB-labeled N-glycans were then eluted 2× with 0.6 ml water, dried in a vacuum centrifuge, resuspended and then analyzed by normal phase HPLC(NP-HPLC). Analogous experiments were run with Castanospermine for comparison. The results are illustrated in FIGS. 23-30. Purified 2AB-N-glycans were separated (NP-HPLC) on a 4.6×250 mm TSK Gel-Amide-80 column (Tosoh Bioscience). A gradient was run from 70% A to 50% A over 40 min at a flow rate of 1.2 ml/min (Solvent A: Acetonitrile, Solvent B: 50 mM ammonium formate pH4.4). Glucose units were determined based on 2AB-labeled glucose oligomer ladder (Prozyme). 2AB-labeled N-glycan standards (Prozyme) were run and assigned glucose units.

Compound | specific N-linked glycan peaks of the HPLC profile (peak areas as % of the untreated Cntr peak area)
Cc1ccc(NC(=O)c2c(NC(=O)c3cccnc3)sc3c2CCC3)cc1 [compound 10, N-(3-(p-tolylcarbamoyl)-5,6-dihydro-4H-cyclopenta[b]thiophen-2-yl)nicotinamide] | increases and decreases of specific peaks
COc1ccc(CN/C=C2\C(=O)N(c3nc4ccccc4s3)N=C2c2ccccc2)cc1 [compound 11] | increases and decreases of specific peaks
O[C@H]1[C@H](O)[C@@H](O)CN2CC[C@H](O)[C@H]12 [Castanospermine, reference compound] | N-glycan Profile Changes
CCOc1cc(/C=C(\C#N)c2n[nH]c(N)c2C#N)ccc1O [compound 12, (Z)-5-amino-3-(1-cyano-2-(3-ethoxy-4-hydroxyphenyl)vinyl)-1H-pyrazole-4-carbonitrile] | increases and decreases of specific peaks
